Experimental data from EP1222921B1, “Pharmaceutical compositions of tizoxanide and/or nitazoxanide” (Romark Laboratories, L.C., priority 1997, dated 1998).
≈ marks a conversion by molar mass, not a printed value. Where “and” joins values, the source holds several entries; their conditions need not be identical. Equal entries are not always repeated.

Experiments:
[1] = test system: Cryptosporidium parvum; type: in vivo
Experimental: An open-label study of nitazoxanide for AIDS-related cryptosporidial diarrhea documented decreased bowel movements among persons taking 500, 1000, 1500, or 2000 mg of the drug daily. […] Almost all participants had failed therapy with azithromycin or paromomycin.
By the end of the study, 8 of 11 had completely eradicated the parasite and the other three had substantial reductions in oocyst levels. There was a trend toward better response with doses of 1000 mg daily or higher and with longer therapy. Two trial participants had urticarial skin rashes; more than 90 percent adhered to the study regimen for more than four weeks.

[2] = test system: Fasciola hepatica; assay: In vitro culture of mature flukes
Experimental: The in vitro efficacy of nitazoxanide and desacetyl-nitazoxanide was tested against Fasciola hepatica. Mature F. hepatica were recovered from the bile ducts of 3 calf livers condemned due to fasciolosis at the Louisiana Veterinary Medical Diagnostic Laboratory at the Hardy's Meat […], Bunkie, LA. Flukes were washed in sterile saline for 1 hour and transferred to sterile saline or RPMI (pH 7.4) for an additional 3 hours. Flukes were then held in sterile RPMI-rabbit serum (50:50 v/v) or sterile RPMI (pH 7.4) overnight at 37°C with 5% CO2. In vitro culture (37°C, 5% CO2) was done according to a modification of the method of Ibarra and Jenkins ([…]. 70:655-661, 1984). […] Only flukes that had normal activity and morphology were used. […] Two control flukes were included in each replicate, […] and one in unmedicated culture media […]. Flukes were examined for the effects of drug treatment as evidenced by death, motility disturbances or morpholgic changes as compared to untreated control flukes, using a backlighted panel and a lighted 3X magnifying lens.

[3] = test system: MRC5 fibroblasts; details: human, 72 h
[4] = test system: mature (13-week/old) Schistosoma mansoni; assay: Experimentally infected mice, worm count; type: in vivo
Experimental: (§1) Nitazoxanide was tested against Schistosoma mansoni and Schistosoma hematobium in experimentally infected mice. Forty (40) white mice, weighing 30 to 50 grams were allocated to two treatment groups of 20 animal per group. The first group was infected with 300-500 Schistosoma mansoni free active cercariae suspended in 0.25 ml of distilled water and administered to each mouse by intraperitoneal injection. The second group was infected in the same manner but with Schistosoma hemotobium cercariae. These two groups were then kept for a total of 70 days in the laboratory. Seventy days after infection of the animals, ten mice from each group were treated with nitazoxanide as a 1.3 mg oral dose administered, morning and evening, for 7 consecutive days. Seven days after the end of treatment tall mice were sacrificed and the worms were extracted from the liver of each animal by perfusion using tepid water (37°C). The extracted schistosomes were counted for all treatment and control animals. The efficacy of nitazoxanide was calculated busing the formula indicated below: % efficacy(a - b)/(a)x 100 [formula] Where: • a = the number of schistosomes recovered from feces in the control animals • b = the number of schistosomes recovered from feces in the treated animals

[5] = test system: mature (13-week/old) Schistosoma hematobium; assay: Experimentally infected mice, worm count; type: in vivo
Experimental: as §1

[6] = test system: M. intracellular ATCC 13950; assay: MIC by standard agar dilution; type: cell-based, Mycobacterium intracellular; details: Mycobacterium, ATCC13950, 504 h, Middlebrook 7H11 agar, 3 weeks
[7] = test system: Cryptosporidium parvum; assay: Preliminary clinical trial in AIDS patients with chronic cryptosporidial diarrhea; type: in vivo; details: of 16 evaluable by the eighth week, oral 500 to 2000 mg daily
Experimental: In a preliminary clinical trial, 30 AIDS patients with chronic cryptosporidial diarrhea were treated with oral nitazoxanide from 500 to 2000 mg daily. […] Twenty-eight people completed two or more weeks of therapy and 16 of those were evaluable for a therapeutic response by the eighth week of treatment. […] Six patients met both clinical and parasitological response criteria for benefit. Patients who received higher daily doses of drug for longer periods of time were more likely to have a positive response.

[8] = test system: RH strain of Toxoplasma gondii; assay: Toxoplasma gondii growth in MRC5 fibroblast cultures, ELISA; type: cell-based
[9] = after 23 weeks, 500, 1000, 1500, or 2000 mg daily
[10] = 10 mice, 2.6 mg/day for 7 consecutive days
[11] = individual mice No. 1-10, 1.3 mg oral morning and evening for 7 consecutive days, 70 days after infection
[12] = total of 10 mice, 2.6 mg/day for 7 consecutive days

CC(=O)Oc1ccccc1C(=O)Nc1ncc([N+](=O)[O-])s1 [Nitazoxanide, 2-(acetolyloxy)-N-(5-nitro 2-thiazoly) benzamide]
complete clinical response (one to three predominantly formed bowel movements daily) [1, 9]: 9 of 13
partial clinical response [1, 9]: 4 of 13
completely eradicated the parasite ([1]; by the end of the study): 8 of 11
substantial reductions in oocyst levels ([1]; by the end of the study, remaining of 11): three
effects on flukes (death, motility disturbances) ([2]; 1 µg treatment): one fluke died by hour 16, three by hour 41 and five by hour 74; 3 flukes remained active at hour 91 and one fluke had activity at hour 115
effects on flukes (death, motility disturbances) ([2]; 3 µg treatment): By 23 hours, only 2 sluggish flukes in the 3 µg group remained alive; these were dead by hour 41
effects on flukes (death, motility disturbances) ([2]; 5 µg treatment): only 3 flukes were active at hour 6 and none were active at 16 hours
effects on flukes (death, motility disturbances) ([2]; 10 µg treatment): only one fluke survived to 16 hours
effects on flukes (death, motility disturbances) ([2]; 25 µg treatment): all flukes were dead or moribund except one fluke at 1 hour in the 25 µg group it was dead at 3 hour
effects on flukes (death, motility disturbances) ([2]; 50 µg treatment): all flukes were dead or moribund
effects on flukes (death, motility disturbances) ([2]; 100 µg treatment): all flukes were dead or moribund
concentrations with marked toxicity on the cell monolayer [3]: ≥ 2500 ng/mL
No. of flukes removed from liver of Treated Mice, Mean/Mouse [4, 10]: 9.9
No. of flukes removed from liver of Treated Mice [4, 11]: 12 and 8 and 7 and 10 (3×) and 9 (2×) and 11 and 13
No. of flukes removed from liver of Treated Mice, Total [4, 12]: 99
Efficacy (worm reduction) ([4]; versus control mice, 2.6 mg/day for 7 consecutive days): 59.91%
No. of flukes removed from liver of Treated Mice, Mean/Mouse [5, 10]: 2.4
No. of flukes removed from liver of Treated Mice [5, 11]: 2 (5×) and 0.0 and 3 (2×) and 4 (2×)
No. of flukes removed from liver of Treated Mice, Total [5, 12]: 24
Efficacy (worm reduction) ([5]; versus control animals, 2.6 mg/day for 7 consecutive days): 82.85%
MIC [6]: 2 µg/mL (≈ 6.51 µM)
individuals with a marked reduction or eradication of the parasite in the stool [7]: 10
patients who met both clinical and parasitological response criteria [7]: Six
people with the organism becoming undetectable [7]: four
persons with a 50 percent or greater reduction in daily bowel movement frequency [7]: 12
concentration with significant effect (inhibition) ([8]; 72 hours): ≥ 0.6 mg/L
concentrations with complete inhibition of Toxoplasma growth ([8]; 72 hours): ≥ 2.5 mg/L
IC50 ([8]; Toxoplasma gondii, MRC5, 72 hours, estimated from regression analysis, read-out: 50% inhibitory concentration): 1.2 µg/mL (≈ 3.91 µM)
concentrations at which a marked inhibition of Toxoplasma growth could be observed ([8]; alteration of the parasitophorous vacuole, no marked alteration of the parasite itself): approximately 1.2 mg/L
microscopic examination of the monolayer ([8]; concentration of 1.25 mg/L): induced cytopathic effect on the parasitized cells, with enlargement of the parasitophorous vacuole and reduction of the number of the intra-celular parasites
